For 15 compounds, T/C results are on record in PubChem BioAssay AID248 (DTP/NCI, 2004).

For the test, the system named is L1210 leukemia ip in BDF1 mice, survival T/C. Kind of test: NCI In Vivo Anticancer Drug Screen. Data for tumor model L1210 Leukemia (intraperitoneal) in B6D2F1 (BDF1) mice. Particulars: endpoint: mean survival time, higher = longer survival. In outline: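 Transplanted-tumor mice were given test agent; controls received vehicle only. Survival readings from the two groups were divided (treated over control).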

[1] abbreviates: dose: 100.0 mg/kg/injection, schedule: Q04DX003 (ip), vehicle: saline.
[2] abbreviates: dose: 100.0 mg/kg/injection, schedule: Q01DX001 (ip), vehicle: saline.
Setting [3] is: dose: 200.0 mg/kg/injection, schedule: Q01DX001 (ip), vehicle: saline.
Where [4] appears, read: dose: 200.0 mg/kg/injection, schedule: Q04DX003 (ip), vehicle: saline.
Setting [5] is: dose: 400.0 mg/kg/injection, schedule: Q04DX003 (ip), vehicle: saline.
[6] abbreviates: dose: 100.0 mg/kg/injection, schedule: Q01DX009 (ip), vehicle: saline with Tween-80.
The mark [7] stands for this setting: dose: 200.0 mg/kg/injection, schedule: Q01DX009 (ip), vehicle: saline with Tween-80.
[8] abbreviates: dose: 400.0 mg/kg/injection, schedule: Q01DX009 (ip), vehicle: saline with Tween-80.
Where [9] appears, read: dose: 100.0 mg/kg/injection, schedule: Q01DX009 (ip), vehicle: saline.
Where [10] appears, read: dose: 200.0 mg/kg/injection, schedule: Q01DX009 (ip), vehicle: saline.
Setting [11] is: dose: 100.0 mg/kg/injection, schedule: Q04DX002 (ip), vehicle: Klucel (hydroxypropylcellulose) (HPC).
[12] abbreviates: dose: 200.0 mg/kg/injection, schedule: Q04DX002 (ip), vehicle: Klucel (hydroxypropylcellulose) (HPC).
Setting [13] is: dose: 400.0 mg/kg/injection, schedule: Q04DX002 (ip), vehicle: Klucel (hydroxypropylcellulose) (HPC).

Where “and” joins values, the source holds several entries; their conditions need not be identical. Equal entries are not always repeated. Toxic doses and inconclusive results are not listed.

Take `N=C(N)Cc1ccc(NC(=O)c2ccc(C(=O)Nc3ccc(CC(=N)N)cc3)cc2)cc1`: the T/C by setting is: (dose: 3.75 mg/kg/injection, schedule: Q01DX Z (ip), vehicle: methylcellulose (MC)) 108 % of control; (dose: 3.75 mg/kg/injection, schedule: Q01DX Z (ip), vehicle: saline) 89 % of control; (dose: 7.5 mg/kg/injection, schedule: Q01DX Z (ip), vehicle: methylcellulose (MC)) 108 % of control; (dose: 15.0 mg/kg/injection, schedule: Q01DX Z (ip), vehicle: saline) 155 % of control; (dose: 15.0 mg/kg/injection, schedule: Q01DX Z (oral), vehicle: saline) 105 % of control; (dose: 16.5 mg/kg/injection, schedule: Q01DX009 (ip), vehicle: saline with Tween-80) 171 % of control. Besides, the T/C (dose: 22.0 mg/kg/injection, schedule: Q01DX001 (ip), vehicle: carboxymethylcellulose (CMC)) was 107 % of control and 109 % of control; the T/C (dose: 25.0 mg/kg/injection, schedule: Q01DX009 (ip), vehicle: saline with Tween-80) is 219 % of control; the T/C (dose: 25.0 mg/kg/injection, schedule: Q01DX009 (ip), vehicle: saline) is 174 % of control; the T/C (dose: 25.0 mg/kg/injection, schedule: Q04DX003 (ip), vehicle: saline) was 107 % of control; the T/C (dose: 30.0 mg/kg/injection, schedule: Q01DX Z (ip), vehicle: methylcellulose (MC)) is 116 % of control; the T/C (dose: 30.0 mg/kg/injection, schedule: Q01DX Z (ip), vehicle: saline) was 103 % of control and 113 % of control. In addition, the T/C by setting is: (dose: 30.0 mg/kg/injection, schedule: Q01DX Z (oral), vehicle: saline) 102 % of control; (dose: 33.0 mg/kg/injection, schedule: Q01DX001 (ip), vehicle: carboxymethylcellulose (CMC)) 112 % of control; (dose: 33.0 mg/kg/injection, schedule: Q04DX003 (ip), vehicle: saline) 107 % of control; (dose: 37.5 mg/kg/injection, schedule: Q01DX009 (ip), vehicle: saline with Tween-80) 120 % of control; (dose: 50.0 mg/kg/injection, schedule: Q01DX001 (ip), vehicle: carboxymethylcellulose (CMC)) 117 % of control; (dose: 60.0 mg/kg/injection, schedule: Q01DX Z (oral), vehicle: saline) 108 % of control and 109 % of control. For the same compound, the T/C reads like this: (dose: 75.0 mg/kg/injection, schedule: Q04DX003 (ip), vehicle: saline) 183 % of control; under setting [1], 120 % of control; (dose: 120.0 mg/kg/injection, schedule: Q01DX Z (oral), vehicle: saline) 103 % of control and 108 % of control; (dose: 240.0 mg/kg/injection, schedule: Q01DX Z (oral), vehicle: saline) 112 % of control; (dose: 480.0 mg/kg/injection, schedule: Q01DX Z (oral), vehicle: saline) 106 % of control.
For the compound `COC(=O)C1CCCCC1NC(C)=O` (stereo not given), the T/C under setting [2] is 102 % of control; the T/C under setting [1] is 114 % of control; the T/C under setting [3] is 110 % of control; the T/C under setting [4] was 100 % of control; the T/C (dose: 400.0 mg/kg/injection, schedule: Q01DX001 (ip), vehicle: saline) was 103 % of control; the T/C under setting [5] is 103 % of control.
Take `C=CCOP(=O)(OCC=C)OCC=C`: the T/C by setting is: (dose: 50.0 mg/kg/injection, schedule: Q01DX009 (ip), vehicle: Klucel (hydroxypropylcellulose) (HPC)) 97 % of control; (dose: 50.0 mg/kg/injection, schedule: Q04DX003 (ip), vehicle: Klucel (hydroxypropylcellulose) (HPC)) 99 % of control; (dose: 100.0 mg/kg/injection, schedule: Q01DX009 (ip), vehicle: Klucel (hydroxypropylcellulose) (HPC)) 97 % of control; (dose: 100.0 mg/kg/injection, schedule: Q04DX003 (ip), vehicle: Klucel (hydroxypropylcellulose) (HPC)) 91 % of control; (dose: 200.0 mg/kg/injection, schedule: Q01DX009 (ip), vehicle: Klucel (hydroxypropylcellulose) (HPC)) 98 % of control; (dose: 200.0 mg/kg/injection, schedule: Q04DX003 (ip), vehicle: Klucel (hydroxypropylcellulose) (HPC)) 93 % of control.
`CCCNC(=O)Nc1cc(Cl)ccc1OC`: the T/C by setting is: under setting [6], 100 % of control; (dose: 100.0 mg/kg/injection, schedule: Q04DX003 (ip), vehicle: saline with Tween-80) 95 % of control; under setting [7], 94 % of control; (dose: 200.0 mg/kg/injection, schedule: Q04DX003 (ip), vehicle: saline with Tween-80) 103 % of control; under setting [8], 96 % of control; (dose: 400.0 mg/kg/injection, schedule: Q04DX003 (ip), vehicle: saline with Tween-80) 94 % of control.
`Cc1cc(N(CCCl)CCCl)ccc1C=Nc1cc(Br)c(O)c(Br)c1`: the T/C was 96 % of control (dose: 100.0 mg/kg/injection, schedule: Q01DX001 (ip), vehicle: carboxymethylcellulose (CMC)); 94 % of control (dose: 200.0 mg/kg/injection, schedule: Q01DX001 (ip), vehicle: carboxymethylcellulose (CMC)); 102 % of control (dose: 400.0 mg/kg/injection, schedule: Q01DX001 (ip), vehicle: carboxymethylcellulose (CMC)).
For `O=P(CCl)(Oc1ccc(Cl)cc1)Oc1ccc(Cl)cc1`, the T/C under setting [2] is 103 % of control and the T/C under setting [3] was 95 % of control.
With `O=[N+]([O-])c1ccc(N/N=C(\CBr)c2ccccc2)c([N+](=O)[O-])c1`, the T/C under setting [6] is 94 % of control, the T/C under setting [7] was 95 % of control and the T/C under setting [8] is 94 % of control.
`O=C(OCc1ccccc1CN1CCCC1)c1cccc(Cl)c1`: the T/C is 102 % of control (dose: 100.0 mg/kg/injection, schedule: Q01DX001 (ip), vehicle: Klucel (hydroxypropylcellulose) (HPC)) and 117 % of control (dose: 200.0 mg/kg/injection, schedule: Q01DX001 (ip), vehicle: Klucel (hydroxypropylcellulose) (HPC)).
On to `CS(=O)(=O)c1ccccc1C(=O)O`, for which the T/C was 93 % of control (dose: 50.0 mg/kg/injection, schedule: Q01DX009 (ip), vehicle: saline); 105 % of control (dose: 50.0 mg/kg/injection, schedule: Q04DX003 (ip), vehicle: acetone); 97 % of control (dose: 100.0 mg/kg/injection, schedule: Q01DX001 (ip), vehicle: acetone); 98 % of control under setting [9]; 105 % of control (dose: 100.0 mg/kg/injection, schedule: Q04DX003 (ip), vehicle: acetone); 101 % of control (dose: 200.0 mg/kg/injection, schedule: Q01DX001 (ip), vehicle: acetone). Also, the T/C under setting [10] is 98 % of control and the T/C (dose: 200.0 mg/kg/injection, schedule: Q04DX003 (ip), vehicle: acetone) was 103 % of control.
Take `COc1ccc(-c2c(-c3ccccc3)oc3cc(O)ccc23)cc1`: the T/C (dose: 100.0 mg/kg/injection, schedule: Q04DX003 (ip), vehicle: gum acacia) was 90 % of control; the T/C (dose: 200.0 mg/kg/injection, schedule: Q04DX003 (ip), vehicle: gum acacia) is 90 % of control; the T/C (dose: 400.0 mg/kg/injection, schedule: Q04DX003 (ip), vehicle: gum acacia) was 93 % of control.
With `O=C(O)c1ccc(CCCCBr)cc1`, the T/C runs as follows: under setting [11], 96 % of control; under setting [12], 100 % of control; under setting [13], 96 % of control.
With `CCOC(=O)C(C)C(=O)C(=O)N=C(N)N` (stereo not given), the T/C reads like this: under setting [9], 102 % of control; under setting [1], 101 % of control and 103 % of control; under setting [10], 100 % of control; under setting [4], 97 % of control; (dose: 400.0 mg/kg/injection, schedule: Q01DX009 (ip), vehicle: saline) 100 % of control; under setting [5], 103 % of control and 104 % of control.
As to `CCCP(=S)(CC)CC`, the T/C is 90 % of control under setting [11], 93 % of control under setting [12] and 90 % of control under setting [13].
As for `CO/N=C(/CSS(=O)(=O)O)c1ccccc1`, the T/C reads like this: under setting [11], 96 % of control; under setting [12], 96 % of control; under setting [13], 96 % of control.
For `CC1CCC2(NC1)OC1CC3C4CCC5CC(O)CCC5(C)C4CCC3(C)C1C2C` (stereo not given), the T/C reads like this: (dose: 100.0 mg/kg/injection, schedule: Q01DX001 (ip), vehicle: other) 94 % of control; (dose: 200.0 mg/kg/injection, schedule: Q01DX001 (ip), vehicle: other) 91 % of control; (dose: 400.0 mg/kg/injection, schedule: Q01DX001 (ip), vehicle: other) 94 % of control.
